Experimental data reported in PubChem BioAssay (NCI).
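Step 1: Grow cells in 96-well plates. Step 2: Expose to compound for 48 hours at 5 concentrations. Step 3: Interpolate endpoints linearly; if unreached, use highest concentration. TGI is the concentration that stops growth completely.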

Columns and labels:
Assay in all cases: growth of human tumour cells (NCI), 48 h
786-0 renal = system: 786-0 renal
A549 NSCLC = system: A549 NSCLC
ACHN renal = system: ACHN renal
BT-549 breast = system: BT-549 breast
CAKI-1 renal = system: CAKI-1 renal
COLO 205 colon = system: COLO 205 colon
DU-145 prostate = system: DU-145 prostate
HCC-2998 colon = system: HCC-2998 colon
HCT-116 colon = system: HCT-116 colon
HCT-15 colon = system: HCT-15 colon
HL-60(TB) leukemia = system: HL-60(TB) leukemia
HOP-62 NSCLC = system: HOP-62 NSCLC
HOP-92 NSCLC = system: HOP-92 NSCLC
HS 578T breast = system: HS 578T breast
HT29 colon = system: HT29 colon
K-562 leukemia = system: K-562 leukemia
KM12 colon = system: KM12 colon
LOX IMVI melanoma = system: LOX IMVI melanoma
M14 melanoma = system: M14 melanoma
MALME-3M melanoma = system: MALME-3M melanoma
MCF7 breast = system: MCF7 breast
MDA-MB-231 breast = system: MDA-MB-231 breast
MDA-MB-435 = system: MDA-MB-435
MDA-N = system: MDA-N
MOLT-4 leukemia = system: MOLT-4 leukemia
NCI-H23 lung = system: NCI-H23 lung
NCI-H522 lung = system: NCI-H522 lung
NCI/ADR-RES ovarian = system: NCI/ADR-RES ovarian
OVCAR-3 ovarian = system: OVCAR-3 ovarian
OVCAR-4 ovarian = system: OVCAR-4 ovarian
OVCAR-5 ovarian = system: OVCAR-5 ovarian
OVCAR-8 ovarian = system: OVCAR-8 ovarian
PC-3 prostate = system: PC-3 prostate
RPMI-8226 leukemia = system: RPMI-8226 leukemia
SF-268 CNS = system: SF-268 CNS
SF-295 CNS = system: SF-295 CNS
SF-539 CNS = system: SF-539 CNS
SK-MEL-28 melanoma = system: SK-MEL-28 melanoma
SK-MEL-5 melanoma = system: SK-MEL-5 melanoma
SK-OV-3 ovarian = system: SK-OV-3 ovarian
SN12C renal = system: SN12C renal
SNB-19 CNS = system: SNB-19 CNS
SNB-75 CNS = system: SNB-75 CNS
SR leukemia = system: SR leukemia
SW-620 colon = system: SW-620 colon
TK-10 renal = system: TK-10 renal
U251 CNS = system: U251 CNS
UACC-257 melanoma = system: UACC-257 melanoma
A498 renal = system: A498 renal
CCRF-CEM leukemia = system: CCRF-CEM leukemia
EKVX NSCLC = system: EKVX NSCLC
IGROV1 ovarian = system: IGROV1 ovarian
RXF 393 renal = system: RXF 393 renal
SK-MEL-2 melanoma = system: SK-MEL-2 melanoma
UACC-62 melanoma = system: UACC-62 melanoma
UO-31 renal = system: UO-31 renal

`COc1nc(N)c(C#N)c(C#N)c1C#N` was tested, and the TGI (786-0 renal) was > 10 µM, the TGI (A549 NSCLC) was > 10 µM and the TGI (ACHN renal) was > 10 µM. For the same compound, the TGI (BT-549 breast) was > 10 µM, the TGI (CAKI-1 renal) was > 10 µM and the TGI (COLO 205 colon) was > 10 µM. The TGI (DU-145 prostate) was > 10 µM, the TGI (HCC-2998 colon) was > 10 µM and the TGI (HCT-116 colon) was > 10 µM. The TGI (HCT-15 colon) was > 10 µM, the TGI (HL-60(TB) leukemia) was > 10 µM and the TGI (HOP-62 NSCLC) was > 10 µM. For the same compound, the TGI (HOP-92 NSCLC) was > 10 µM, the TGI (HS 578T breast) was > 10 µM and the TGI (HT29 colon) was > 10 µM. For the same compound, the TGI (K-562 leukemia) was > 10 µM, the TGI (KM12 colon) was > 10 µM and the TGI (LOX IMVI melanoma) was > 10 µM. The TGI (M14 melanoma) was > 10 µM, the TGI (MALME-3M melanoma) was > 10 µM and the TGI (MCF7 breast) was > 10 µM. The TGI (MDA-MB-231 breast) was > 10 µM, the TGI (MDA-MB-435) was > 10 µM and the TGI (MDA-N) was > 10 µM. The TGI (MOLT-4 leukemia) was > 10 µM, the TGI (NCI-H23 lung) was > 10 µM and the TGI (NCI-H522 lung) was > 10 µM. The TGI (NCI/ADR-RES ovarian) was > 10 µM, the TGI (OVCAR-3 ovarian) was > 10 µM and the TGI (OVCAR-4 ovarian) was > 10 µM. For the same compound, the TGI (OVCAR-5 ovarian) was > 10 µM, the TGI (OVCAR-8 ovarian) was > 10 µM and the TGI (PC-3 prostate) was > 10 µM. For the same compound, the TGI (RPMI-8226 leukemia) was > 10 µM, the TGI (SF-268 CNS) was > 10 µM and the TGI (SF-295 CNS) was > 10 µM. The TGI (SF-539 CNS) was > 10 µM, the TGI (SK-MEL-28 melanoma) was > 10 µM and the TGI (SK-MEL-5 melanoma) was > 10 µM. For the same compound, the TGI (SK-OV-3 ovarian) was > 10 µM, the TGI (SN12C renal) was > 10 µM and the TGI (SNB-19 CNS) was > 10 µM. For the same compound, the TGI (SNB-75 CNS) was > 10 µM, the TGI (SR leukemia) was > 10 µM and the TGI (SW-620 colon) was > 10 µM. For the same compound, the TGI (TK-10 renal) was > 10 µM, the TGI (U251 CNS) was > 10 µM and the TGI (UACC-257 melanoma) was > 10 µM.
With `COC(=O)[C@H](NC(=O)OC(C)(C)C)[C@H]1COC(C)(C)O1` the TGI (786-0 renal) was > 100 µM, the TGI (A498 renal) was > 100 µM and the TGI (A549 NSCLC) was > 100 µM. The TGI (ACHN renal) was > 100 µM, the TGI (BT-549 breast) was > 100 µM and the TGI (CAKI-1 renal) was > 100 µM. The TGI (CCRF-CEM leukemia) was > 100 µM, the TGI (COLO 205 colon) was > 100 µM and the TGI (DU-145 prostate) was > 100 µM. The TGI (EKVX NSCLC) was > 100 µM, the TGI (HCC-2998 colon) was > 100 µM and the TGI (HCT-116 colon) was > 100 µM. For the same compound, the TGI (HCT-15 colon) was > 100 µM, the TGI (HL-60(TB) leukemia) was > 100 µM and the TGI (HOP-62 NSCLC) was > 100 µM. For the same compound, the TGI (HT29 colon) was > 100 µM, the TGI (IGROV1 ovarian) was > 100 µM and the TGI (K-562 leukemia) was > 100 µM. For the same compound, the TGI (KM12 colon) was > 100 µM, the TGI (LOX IMVI melanoma) was > 100 µM and the TGI (M14 melanoma) was > 100 µM. The TGI (MALME-3M melanoma) was > 100 µM, the TGI (MCF7 breast) was > 100 µM and the TGI (MDA-MB-231 breast) was > 100 µM. The TGI (MDA-MB-435) was > 100 µM, the TGI (MDA-N) was > 100 µM and the TGI (MOLT-4 leukemia) was > 100 µM. For the same compound, the TGI (NCI-H23 lung) was > 100 µM, the TGI (NCI-H522 lung) was > 100 µM and the TGI (NCI/ADR-RES ovarian) was > 100 µM. The TGI (OVCAR-3 ovarian) was > 100 µM, the TGI (OVCAR-4 ovarian) was > 100 µM and the TGI (OVCAR-5 ovarian) was > 100 µM. The TGI (OVCAR-8 ovarian) was > 100 µM, the TGI (PC-3 prostate) was > 100 µM and the TGI (RPMI-8226 leukemia) was > 100 µM. For the same compound, the TGI (RXF 393 renal) was > 100 µM, the TGI (SF-268 CNS) was > 100 µM and the TGI (SF-295 CNS) was > 100 µM. For the same compound, the TGI (SF-539 CNS) was > 100 µM, the TGI (SK-MEL-2 melanoma) was > 100 µM and the TGI (SK-MEL-28 melanoma) was > 100 µM. The TGI (SK-MEL-5 melanoma) was > 100 µM, the TGI (SK-OV-3 ovarian) was > 100 µM and the TGI (SN12C renal) was > 100 µM. For the same compound, the TGI (SNB-19 CNS) was > 100 µM, the TGI (SR leukemia) was > 100 µM and the TGI (SW-620 colon) was > 100 µM. The TGI (TK-10 renal) was > 100 µM, the TGI (U251 CNS) was > 100 µM and the TGI (UACC-257 melanoma) was > 100 µM. The TGI (UACC-62 melanoma) was > 100 µM and the TGI (UO-31 renal) was > 100 µM.
